These results are taken from US11180474B2 (BRISTOL-MYERS SQUIBB COMPANY, priority 2016, dated 2021).

Test [1] has as its target T1, human TLR9 (Homo sapiens, UniProt Q9NR96).
T1 construct: host or cells: HEK-Blue cells
T1 sequence (Q9NR96 26-1032): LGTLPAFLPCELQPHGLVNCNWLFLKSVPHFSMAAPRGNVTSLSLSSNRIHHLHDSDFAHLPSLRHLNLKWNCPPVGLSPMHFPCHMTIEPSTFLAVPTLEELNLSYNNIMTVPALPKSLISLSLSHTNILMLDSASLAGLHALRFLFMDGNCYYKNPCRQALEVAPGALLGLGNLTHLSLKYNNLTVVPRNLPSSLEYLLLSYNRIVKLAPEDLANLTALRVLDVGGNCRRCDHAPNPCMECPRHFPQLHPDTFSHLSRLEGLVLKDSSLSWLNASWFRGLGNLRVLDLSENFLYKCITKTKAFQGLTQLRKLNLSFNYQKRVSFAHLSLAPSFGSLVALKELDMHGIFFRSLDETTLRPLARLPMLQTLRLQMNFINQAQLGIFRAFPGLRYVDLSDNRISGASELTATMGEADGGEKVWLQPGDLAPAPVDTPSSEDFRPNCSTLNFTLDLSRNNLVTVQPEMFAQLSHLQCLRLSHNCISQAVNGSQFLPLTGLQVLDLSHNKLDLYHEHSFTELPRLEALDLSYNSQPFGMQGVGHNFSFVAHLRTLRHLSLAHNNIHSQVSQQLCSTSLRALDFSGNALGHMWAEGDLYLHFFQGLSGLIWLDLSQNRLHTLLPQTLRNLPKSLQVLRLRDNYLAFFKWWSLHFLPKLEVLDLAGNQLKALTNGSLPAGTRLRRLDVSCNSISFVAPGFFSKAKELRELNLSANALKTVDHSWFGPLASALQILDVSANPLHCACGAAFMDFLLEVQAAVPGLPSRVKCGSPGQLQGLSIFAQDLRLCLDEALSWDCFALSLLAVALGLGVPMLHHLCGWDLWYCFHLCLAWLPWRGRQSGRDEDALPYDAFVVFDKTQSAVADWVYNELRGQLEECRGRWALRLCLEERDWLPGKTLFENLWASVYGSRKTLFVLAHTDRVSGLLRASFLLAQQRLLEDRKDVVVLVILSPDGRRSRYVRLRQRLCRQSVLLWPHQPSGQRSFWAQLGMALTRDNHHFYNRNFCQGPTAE
The test can be described thus: TLR9 inhibition reporter assay (HEK-Blue cells, SEAP reporter, ODN2006 stimulation). The format is cell-based. The note with it: HEK-Blue cells overexpressing human TLR9, ODN2006 5 nM. The procedure, abridged:
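Agonists used: gardiquimod 7.5 μM (TLR7), R848 15.9 μM (TLR8), ODN2006 5 nM (TLR9), added after 30 min room-temperature compound pre-treatment (0.05 nM–50 μM) of receptor-overexpressing HEK-Blue cells. SEAP reporter (NF-κB/AP-1 driven) read after 22 h at 37 °C; inhibition scaled between agonist+DMSO and reference-inhibitor wells.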

In test [2] the target is T2, human TLR7 (Homo sapiens, UniProt Q9NYK1).
T2 construct: host or cells: HEK-Blue cells
T2 sequence (Q9NYK1 27-1049): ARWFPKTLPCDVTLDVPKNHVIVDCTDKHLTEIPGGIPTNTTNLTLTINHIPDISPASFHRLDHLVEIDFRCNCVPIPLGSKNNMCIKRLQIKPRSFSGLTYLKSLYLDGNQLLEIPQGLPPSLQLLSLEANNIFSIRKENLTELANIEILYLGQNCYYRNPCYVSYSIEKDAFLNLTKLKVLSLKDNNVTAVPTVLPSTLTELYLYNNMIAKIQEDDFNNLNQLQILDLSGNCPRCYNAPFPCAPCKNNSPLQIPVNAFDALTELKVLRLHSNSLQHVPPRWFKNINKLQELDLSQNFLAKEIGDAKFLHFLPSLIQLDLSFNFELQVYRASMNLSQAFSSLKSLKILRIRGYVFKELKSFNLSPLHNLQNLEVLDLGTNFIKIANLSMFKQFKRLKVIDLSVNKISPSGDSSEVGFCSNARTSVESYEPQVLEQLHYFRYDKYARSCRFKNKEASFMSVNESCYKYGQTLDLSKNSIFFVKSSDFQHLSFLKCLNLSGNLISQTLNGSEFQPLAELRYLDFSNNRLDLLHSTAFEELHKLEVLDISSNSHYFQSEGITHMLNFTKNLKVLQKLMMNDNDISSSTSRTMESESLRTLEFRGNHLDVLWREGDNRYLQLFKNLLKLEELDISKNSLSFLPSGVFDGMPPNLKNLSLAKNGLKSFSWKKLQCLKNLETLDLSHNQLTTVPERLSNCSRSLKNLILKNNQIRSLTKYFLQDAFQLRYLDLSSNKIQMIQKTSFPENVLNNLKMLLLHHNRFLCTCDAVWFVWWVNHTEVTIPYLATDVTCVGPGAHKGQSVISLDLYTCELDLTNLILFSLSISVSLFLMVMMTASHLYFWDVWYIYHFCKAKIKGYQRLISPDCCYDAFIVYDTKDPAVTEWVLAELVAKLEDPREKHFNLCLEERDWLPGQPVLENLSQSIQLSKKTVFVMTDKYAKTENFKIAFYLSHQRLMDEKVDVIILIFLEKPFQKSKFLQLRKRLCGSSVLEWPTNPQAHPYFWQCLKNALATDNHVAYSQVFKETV
The test can be described thus: TLR7 inhibition reporter assay (HEK-Blue cells, SEAP reporter, gardiquimod stimulation). The test is classed as cell-based. The note with it: HEK-Blue cells overexpressing human TLR7, gardiquimod 7.5 μM. The procedure, abridged:
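HEK-Blue reporter cells (15,000/well TLR7, 20,000 TLR8) exposed to compound over 0.05 nM–50 μM, agonist-stimulated (R848 for TLR8, gardiquimod for TLR7), 22 h at 37 °C, 5% CO2. SEAP read with HEK-Blue Detection; % inhibition relative to agonist-plus-DMSO and known-inhibitor controls.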
A general note: In a reporter assay the amount or activity of a reporter protein is the signal.

As a reminder, the IC50 is the concentration that inhibits the measured activity by half. A high value points to a need for much substance. On to `COc1ccc(-c2[nH]c3ccc(C4CCN(C5CCN(Cc6cccs6)CC5)CC4)cc3c2C)cc1OC` [Example 64, 2-(3,4-dimethoxyphenyl)-3-methyl-5-(1′-(thiophen-2-ylmethyl)-[1,4′-bipiperidin]-4-yl)-1H-indole], for which the IC50 in test [1] is 112 nM; in test [2], 163 nM.

As for `COc1ccc(-c2[nH]c3ccc(C4CCN(C(=O)CN5CCN(C)CC5)CC4)cc3c2C)cc1OC` [Example 409, 1-(4-(2-(3,4-dimethoxyphenyl)-3-methyl-1H-indol-5-yl)piperidin-1-yl)-2-(4-methylpiperazin-1-yl)ethan-1-one], the IC50 turned out to be 2350 nM in test [1] and 1010 nM in test [2].
